Measured values taken from ChEMBL document CHEMBL1909046, “DrugMatrix in vitro pharmacology data”.

Experiments:
Caspase-1 = biological target: T1, Caspase-1 (Homo sapiens, UniProt P29466); parameters: species or system Escherichia coli;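 further: Caspase-1 enzyme inhibition assay with a peptide substrate; in other assays of this panel Not Active means under 50% inhibition at 10 µM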
T1 sequence (P29466 whole entry): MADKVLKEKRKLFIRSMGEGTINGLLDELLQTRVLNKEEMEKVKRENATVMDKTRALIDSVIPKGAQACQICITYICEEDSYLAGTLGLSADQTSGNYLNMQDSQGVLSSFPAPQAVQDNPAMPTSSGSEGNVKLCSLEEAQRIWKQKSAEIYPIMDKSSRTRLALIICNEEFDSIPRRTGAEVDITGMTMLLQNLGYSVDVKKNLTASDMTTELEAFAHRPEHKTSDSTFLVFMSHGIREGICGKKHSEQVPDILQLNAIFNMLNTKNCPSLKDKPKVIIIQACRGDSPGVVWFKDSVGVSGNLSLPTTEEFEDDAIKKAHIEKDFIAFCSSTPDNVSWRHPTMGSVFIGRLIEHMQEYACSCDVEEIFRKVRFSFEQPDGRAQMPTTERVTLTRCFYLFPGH

[1] = biological target: Mitogen-activated protein kinase 14 (Homo sapiens, UniProt Q16539); parameters: species or system Escherichia coli;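 further: inhibition of p38alpha enzyme activity in a biochemical kinase assay, with myelin basic protein serving as substrate; in other assays of this panel Not Active means under 50% inhibition at 10 µM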
[2] = DRUGMATRIX: Glutamate, NMDA, Agonism radioligand binding (ligand: [3H] CGP-39653); format: cell membranes, Rattus norvegicus, Wistar, Cerebral cortex, Membrane; details: Not Active = under 50% inhibition at 10 µM
Cytochrome P450 2E1 = Cytochrome P450 2E1 (Homo sapiens, UniProt P05181); details: bti-tn-5b1-4; further: in other assays of this panel Not Active means under 50% inhibition at 10 µM
[3] = biological target: T2, Type-2 angiotensin II receptor (Homo sapiens, UniProt P50052); format: cell-based; details: cho-k1; further: in other assays of this panel Not Active means under 50% inhibition at 10 µM
T2 sequence (P50052 whole entry): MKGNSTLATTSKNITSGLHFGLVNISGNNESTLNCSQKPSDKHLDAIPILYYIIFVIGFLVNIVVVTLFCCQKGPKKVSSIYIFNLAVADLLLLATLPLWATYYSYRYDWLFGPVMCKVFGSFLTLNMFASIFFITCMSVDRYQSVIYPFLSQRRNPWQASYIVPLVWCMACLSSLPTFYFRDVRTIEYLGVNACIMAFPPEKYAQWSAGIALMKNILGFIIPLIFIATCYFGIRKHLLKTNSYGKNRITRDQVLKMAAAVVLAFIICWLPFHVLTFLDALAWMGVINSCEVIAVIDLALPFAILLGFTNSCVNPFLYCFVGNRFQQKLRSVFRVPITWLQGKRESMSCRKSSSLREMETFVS

Mu-type opioid receptor = Mu-type opioid receptor (Homo sapiens, UniProt P35372); assay: DRUGMATRIX: Opiate mu (OP3, MOP) radioligand binding (ligand: [3H] Diprenorphine); format: cell membranes, CHO-K1, Membrane; details: cho-k1; Not Active = under 50% inhibition at 10 µM
Acetylcholinesterase = Acetylcholinesterase (Homo sapiens, UniProt P22303); assay: DRUGMATRIX: Acetylcholinesterase enzyme inhibition (substrate: acetylthiocholine); format: cell-based, HEK293; details: hek293; Not Active = under 50% inhibition at 10 µM
[4] = DRUGMATRIX: GABAA, Flunitrazepam, Central radioligand binding (ligand: [3H] Flunitrazepam); format: cell membranes, Rattus norvegicus, Wistar, Brain, Membrane; details: Not Active = under 50% inhibition at 10 µM
[5] = biological target: T3, Muscarinic acetylcholine receptor M2 (Homo sapiens, UniProt P08172); format: cell membranes, CHO-K1, Membrane; details: cho-k1; further: in other assays of this panel Not Active means under 50% inhibition at 10 µM
T3 sequence (P08172 whole entry): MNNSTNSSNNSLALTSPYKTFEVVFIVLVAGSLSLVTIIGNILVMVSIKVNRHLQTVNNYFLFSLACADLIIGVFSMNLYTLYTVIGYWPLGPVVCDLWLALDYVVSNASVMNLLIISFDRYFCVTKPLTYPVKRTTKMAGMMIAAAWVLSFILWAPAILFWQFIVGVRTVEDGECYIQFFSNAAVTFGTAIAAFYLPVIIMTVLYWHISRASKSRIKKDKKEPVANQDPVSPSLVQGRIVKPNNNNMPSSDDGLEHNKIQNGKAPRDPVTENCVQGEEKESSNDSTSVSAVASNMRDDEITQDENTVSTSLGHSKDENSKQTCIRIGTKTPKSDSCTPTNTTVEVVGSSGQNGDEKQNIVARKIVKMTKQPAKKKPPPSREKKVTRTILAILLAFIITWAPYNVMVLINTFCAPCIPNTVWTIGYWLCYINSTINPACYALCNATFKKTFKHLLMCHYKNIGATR

Vasopressin V1a receptor = Vasopressin V1a receptor (Homo sapiens, UniProt P37288); format: cell membranes, Membrane; details: hek293; further: in other assays of this panel Not Active means under 50% inhibition at 10 µM
Adenosine receptor A3 = biological target: T4, Adenosine receptor A3 (Homo sapiens, UniProt P0DMS8); format: cell membranes, CHO-K1, Membrane
T4 sequence (P0DMS8 whole entry): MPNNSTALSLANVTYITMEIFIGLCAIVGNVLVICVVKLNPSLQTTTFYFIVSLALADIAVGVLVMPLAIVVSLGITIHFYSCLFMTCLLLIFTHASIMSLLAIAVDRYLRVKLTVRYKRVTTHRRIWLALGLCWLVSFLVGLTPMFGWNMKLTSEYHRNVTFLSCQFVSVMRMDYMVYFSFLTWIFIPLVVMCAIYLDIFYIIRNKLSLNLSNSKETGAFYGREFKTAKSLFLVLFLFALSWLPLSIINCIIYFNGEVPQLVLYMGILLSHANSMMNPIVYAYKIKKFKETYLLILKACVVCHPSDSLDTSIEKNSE

Chain of Mu-type opioid receptor (P35372 whole entry): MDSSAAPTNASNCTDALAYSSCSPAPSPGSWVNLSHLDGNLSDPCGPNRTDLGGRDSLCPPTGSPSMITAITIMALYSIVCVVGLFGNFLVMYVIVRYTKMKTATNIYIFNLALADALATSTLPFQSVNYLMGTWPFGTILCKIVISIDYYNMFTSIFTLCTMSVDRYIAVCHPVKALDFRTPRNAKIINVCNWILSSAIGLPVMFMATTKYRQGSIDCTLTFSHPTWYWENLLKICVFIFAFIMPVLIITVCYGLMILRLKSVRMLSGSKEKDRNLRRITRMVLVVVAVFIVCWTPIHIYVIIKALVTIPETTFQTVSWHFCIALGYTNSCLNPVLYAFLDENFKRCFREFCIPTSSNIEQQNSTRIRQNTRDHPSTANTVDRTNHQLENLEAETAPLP
Chain of Acetylcholinesterase (P22303 whole entry): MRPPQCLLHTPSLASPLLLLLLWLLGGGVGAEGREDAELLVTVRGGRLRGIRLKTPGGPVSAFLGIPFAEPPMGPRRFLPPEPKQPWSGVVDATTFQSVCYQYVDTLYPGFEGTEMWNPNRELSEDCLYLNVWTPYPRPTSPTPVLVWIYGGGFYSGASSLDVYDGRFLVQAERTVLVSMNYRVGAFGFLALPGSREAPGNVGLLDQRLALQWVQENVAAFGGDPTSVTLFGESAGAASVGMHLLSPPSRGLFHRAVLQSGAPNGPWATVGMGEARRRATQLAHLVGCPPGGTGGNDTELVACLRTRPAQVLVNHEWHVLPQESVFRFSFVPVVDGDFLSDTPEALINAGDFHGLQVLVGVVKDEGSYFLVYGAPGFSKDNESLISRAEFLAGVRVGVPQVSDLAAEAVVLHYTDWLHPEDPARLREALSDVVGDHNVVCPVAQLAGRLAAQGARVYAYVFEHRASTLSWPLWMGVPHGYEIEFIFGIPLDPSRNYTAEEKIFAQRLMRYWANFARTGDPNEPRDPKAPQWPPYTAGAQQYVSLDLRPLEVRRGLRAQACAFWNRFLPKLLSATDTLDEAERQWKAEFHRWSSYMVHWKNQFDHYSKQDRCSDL
Chain of Mitogen-activated protein kinase 14 (Q16539 whole entry): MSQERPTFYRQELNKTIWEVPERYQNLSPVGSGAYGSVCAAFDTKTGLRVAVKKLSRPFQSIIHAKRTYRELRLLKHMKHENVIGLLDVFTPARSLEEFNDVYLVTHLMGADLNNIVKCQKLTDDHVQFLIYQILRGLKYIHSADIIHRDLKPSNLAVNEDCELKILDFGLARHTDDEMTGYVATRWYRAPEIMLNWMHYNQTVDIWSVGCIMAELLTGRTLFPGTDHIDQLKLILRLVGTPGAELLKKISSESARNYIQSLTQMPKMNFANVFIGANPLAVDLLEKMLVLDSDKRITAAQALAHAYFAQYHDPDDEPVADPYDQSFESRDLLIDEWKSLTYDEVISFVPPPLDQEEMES
Chain of Cytochrome P450 2E1 (P05181 whole entry): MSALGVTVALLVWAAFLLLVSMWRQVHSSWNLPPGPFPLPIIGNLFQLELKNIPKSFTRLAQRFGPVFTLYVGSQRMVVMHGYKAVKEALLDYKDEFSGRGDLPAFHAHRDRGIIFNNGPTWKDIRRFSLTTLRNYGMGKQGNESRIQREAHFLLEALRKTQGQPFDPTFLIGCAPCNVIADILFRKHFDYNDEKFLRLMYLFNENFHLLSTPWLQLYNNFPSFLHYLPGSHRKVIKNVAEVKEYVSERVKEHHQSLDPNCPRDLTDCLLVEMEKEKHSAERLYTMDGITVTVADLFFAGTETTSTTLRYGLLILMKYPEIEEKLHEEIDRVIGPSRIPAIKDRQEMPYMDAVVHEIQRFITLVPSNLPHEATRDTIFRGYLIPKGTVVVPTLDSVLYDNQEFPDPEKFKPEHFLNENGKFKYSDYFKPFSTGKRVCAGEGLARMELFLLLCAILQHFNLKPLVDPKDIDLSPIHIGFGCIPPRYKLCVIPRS
Chain of Vasopressin V1a receptor (P37288 whole entry): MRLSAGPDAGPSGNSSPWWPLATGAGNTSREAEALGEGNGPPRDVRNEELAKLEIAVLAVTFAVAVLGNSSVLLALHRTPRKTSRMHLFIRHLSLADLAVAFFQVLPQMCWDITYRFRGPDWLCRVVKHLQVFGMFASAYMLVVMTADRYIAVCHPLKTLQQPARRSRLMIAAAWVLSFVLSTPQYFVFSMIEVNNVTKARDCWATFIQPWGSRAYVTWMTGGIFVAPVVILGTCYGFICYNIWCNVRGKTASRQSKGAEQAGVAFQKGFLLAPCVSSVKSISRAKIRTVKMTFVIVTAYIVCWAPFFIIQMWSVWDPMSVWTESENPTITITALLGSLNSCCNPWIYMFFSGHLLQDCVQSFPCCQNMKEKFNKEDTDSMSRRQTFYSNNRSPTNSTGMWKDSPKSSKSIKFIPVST

Structure (SMILES)	IC50 (Caspase-1)	IC50 [1]	IC50 [2]	Ki [2]	IC50 (Cytochrome P450 2E1)	Ki (Cytochrome P450 2E1)	IC50 [3]	IC50 (Mu-type opioid receptor)	IC50 (Acetylcholinesterase)	IC50 [4]	Ki [4]	IC50 [5]	IC50 (Vasopressin V1a receptor)	IC50 (Adenosine receptor A3; cho-k1)	IC50 (Adenosine receptor A3; read-out: IC50)	Ki (Adenosine receptor A3; read-out: Ki)
CC1=C(CC(=O)O)c2cc(F)ccc2/C1=C\c1ccc([S+](C)[O-])cc1 (centres undefined)	Not Active	Not Active	Not Active	Not Active	Not Active	Not Active	Not Active	Not Active	Not Active	Not Active	Not Active	Not Active	Not Active	Not Active	–	–
N[C@H](CSC(=S)NCc1ccccc1)C(=O)O	Not Active	Not Active	Not Active	Not Active	Not Active	Not Active	Not Active	Not Active	Not Active	Not Active	Not Active	Not Active	Not Active	Not Active	–	–
CC(=O)N[C@@H]1[C@H](Oc2c3cc4cc2Oc2ccc(cc2Cl)[C@@H](O[C@@H]2O[C@@H](CO)[C@@H](O)[C@H](O)[C@@H]2NC(C)=O)[C@@H]2NC(=O)[C@H](NC(=O)[C@@H]4NC(=O)[C@H]4NC(=O)[C@@H](Cc5ccc(c(Cl)c5)O3)NC(=O)[C@H](N)c3ccc(O)c(c3)Oc3cc(O)cc4c3)c3ccc(O)c(c3)-c3c(O[C@H]4O[C@H](CO)[C@@H](O)[C@@H](O)[C@@H]4O)cc(O)cc3[C@@H](C(=O)O)NC2=O)O[C@@H](CO)[C@@H](O)[C@@H]1O	Not Active	Not Active	Not Active	Not Active	Not Active	Not Active	Not Active	Not Active	Not Active	Not Active	Not Active	Not Active	Not Active	Not Active	–	–
COCCCOc1ccnc(C[S+]([O-])c2nc3ccccc3[nH]2)c1C (centres undefined) [RABEPRAZOLE]	Not Active	Not Active	Not Active	Not Active	Not Active	Not Active	Not Active	Not Active	Not Active	Not Active	Not Active	Not Active	Not Active	–	3.22 µM	1.82 µM
CNC(=C[N+](=O)[O-])NCCSCc1ccc(CN(C)C)o1 [RANITIDINE]	Not Active	Not Active	Not Active	Not Active	Not Active	Not Active	Not Active	Not Active	Not Active	Not Active	Not Active	Not Active	Not Active	Not Active	–	–
CO[C@H]1/C=C/O[C@@]2(C)Oc3c(C)c(O)c4c(c3C2=O)C2=NC3(CCN(CC(C)C)CC3)NC2=C(NC(=O)/C(C)=C\C=C\[C@H](C)[C@H](O)[C@@H](C)[C@@H](O)[C@@H](C)[C@H](OC(C)=O)[C@@H]1C)C4=O [RIFABUTIN]	Not Active	Not Active	Not Active	Not Active	Not Active	Not Active	Not Active	Not Active	Not Active	Not Active	Not Active	Not Active	Not Active	Not Active	–	–
CC(C)CC(N(C)C)C1(c2ccc(Cl)cc2)CCC1 (centres undefined) [SIBUTRAMINE]	Not Active	Not Active	Not Active	Not Active	Not Active	Not Active	Not Active	Not Active	Not Active	Not Active	Not Active	Not Active	Not Active	Not Active	–	–
